Assay results as given in the NIST ThermoML archive (doi:10.1021/je200415u).

Experiment: mn = molality of the nth substance listed, in mol/kg
Details: 101 kPa, Liquid, METLER TOLEDO SevenEasy conductivity meter

O=[N+]([O-])[O-].O=[N+]([O-])[O-].O=[N+]([O-])[O-].[Y+3] [yttrium nitrate] + O
electrical conductivity [S/m]
Details | m1 = 0.4989 | m1 = 0.9965 | m1 = 1.497 | m1 = 1.982 | m1 = 2.947 | m1 = 3.945 | m1 = 4.957
293.15 K | 7.202 | 10.03 | 10.36 | 9.433 | 6.35 | 3.68 | 1.89
298.15 K | 8.339 | 11.6 | 12 | 10.9 | 7.421 | 4.4 | 2.28
308.15 K | 9.922 | 13.7 | 14.17 | 13.03 | 9.08 | 5.611 | 3.08

O=[N+]([O-])[O-].O=[N+]([O-])[O-].O=[N+]([O-])[O-].[Ce+3] [cerium nitrate] + O
electrical conductivity [S/m]
Details | m1 = 0.5112 | m1 = 1.031 | m1 = 1.555 | m1 = 1.997 | m1 = 3.131 | m1 = 3.968 | m1 = 4.462
293.15 K | 6.618 | 8.513 | 8.217 | 7.244 | 4.309 | 2.67 | 1.912
298.15 K | 7.4 | 9.446 | 9.15 | 8.103 | 4.9 | 3.1 | 2.244
308.15 K | 8.78 | 11.24 | 10.9 | 9.78 | 6.136 | 4.018 | 2.96

O=[N+]([O-])[O-].O=[N+]([O-])[O-].O=[N+]([O-])[O-].[Nd+3] [neodymium(III) nitrate] + O
electrical conductivity [S/m]
Details | m1 = 0.522 | m1 = 1.021 | m1 = 1.555 | m1 = 2.093 | m1 = 3.086 | m1 = 4.124 | m1 = 4.297
293.15 K | 6.78 | 8.78 | 8.65 | 7.44 | 4.708 | 2.521 | 2.219
298.15 K | 7.48 | 9.66 | 9.545 | 8.27 | 5.329 | 2.931 | 2.623
308.15 K | 8.97 | 11.5 | 11.44 | 10.01 | 6.65 | 3.821 | 3.422
